Measured values as given in patent publication US8450308B2 (Vitae Pharmaceuticals, Inc., priority 2008, dated 2013).

Target: T1, truncated human beta-secretase (residues 1-458, His6-tagged at the C-terminus) (Homo sapiens, UniProt P56817)
T1 construct: truncated human beta-secretase (residues 1-458, His6-tagged at the C-terminus); His6 (C); made in house; host or cells: insect cells D. melanogaster S2 (baculovirus expression system (so in the source))
Experiment: BACE fluorescence quench assay
Assay type: biochemical
Details: in vitro enzyme activity, BACE fluorescence assay, pH 4.5; read-out: IC50

T1 sequence (P56817 22-458): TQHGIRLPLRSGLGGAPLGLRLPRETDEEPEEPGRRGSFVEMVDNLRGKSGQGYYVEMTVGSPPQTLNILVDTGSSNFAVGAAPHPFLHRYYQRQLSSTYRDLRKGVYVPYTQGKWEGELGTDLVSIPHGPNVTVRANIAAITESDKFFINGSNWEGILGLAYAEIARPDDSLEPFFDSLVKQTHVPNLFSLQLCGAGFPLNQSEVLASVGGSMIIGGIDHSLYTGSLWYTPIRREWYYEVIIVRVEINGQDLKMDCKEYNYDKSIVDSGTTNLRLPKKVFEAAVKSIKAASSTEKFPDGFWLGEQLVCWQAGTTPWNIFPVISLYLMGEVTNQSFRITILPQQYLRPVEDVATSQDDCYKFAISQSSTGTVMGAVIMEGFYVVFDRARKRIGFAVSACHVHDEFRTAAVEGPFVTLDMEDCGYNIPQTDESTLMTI

Compared with `CN1OC2(CC(c3ccccc3)Oc3cc(F)c(-c4cccnc4F)cc32)N=C1N` (stereo not drawn) [Compound 104, 7-fluoro-6-(2-fluoropyridin-3-yl)-2′-methyl-2-phenyl-2′H-spiro[chroman-4,5′-[1,2,4]oxadiazol]-3′-amine], `CN1OC2(CC(c3ccccc3)Oc3ccc(Oc4ccccc4)cc32)N=C1N` (stereo not drawn) [Compound 108, 2′-methyl-6-phenoxy-2-phenyl-2′H-spiro[chroman-4,5′-[1,2,4]oxadiazol]-3′-amine] is higher in IC50: 5 to 10 µM for the first, 10 to 50 µM for the second.

`CN1OC2(CC(c3ccncc3)Oc3ccc(-c4cccc(C#N)c4)cc32)N=C1N` (stereo not drawn) [Compound 105, 3-(3′-amino-2′-methyl-2-(pyridin-4-yl)-2′H-spiro[chroman-4,5′-[1,2,4]oxadiazole]-6-yl)benzonitrile] and `CN1OC2(CC(c3ccccn3)Oc3ccc(-c4cccc(C#N)c4)cc32)N=C1N` (stereo not drawn) [Compound 106, 3-(3′-amino-2′-methyl-2-(pyridin-2-yl)-2′H-spiro[chroman-4,5′-[1,2,4]oxadiazole]-6-yl)benzonitrile] fall in the same range of IC50: 5 to 10 µM for the first, 5 to 10 µM for the second.

First: CN1OC2(CC(c3ccc(OC(F)(F)F)cc3)Oc3ccc(-c4cccc(C#N)c4)cc32)N=C1N (stereo not drawn) [Compound 107, 3-(3′-amino-2′-methyl-2-(4-(trifluoromethoxy)phenyl)-2′H-spiro[chroman-4,5′-[1,2,4]oxadiazole]-6-yl)benzonitrile]
Second: CN1OC2(CC3(Cc4ccccc4C3)Oc3ccc(-c4cccc(C#N)c4)cc32)N=C1N (stereo not drawn) [Compound 315]
The IC50 of the first is higher: 10 to 50 µM for the first, 0.1 to 0.5 µM for the second.

`CN1OC2(N=C1N)c1cc(-c3cccc(C#N)c3)ccc1OC1(CCCOC1)C2F` (stereo not drawn) [Compound 109] and `CC1C2(CCCOC2)Oc2ccc(-c3cccc(C#N)c3)cc2C12N=C(N)N(C)O2` (stereo not drawn) [Compound 111] fall in the same range of IC50: 0.1 to 0.5 µM for the first, 0.1 to 0.5 µM for the second.

First: CN1OC2(CC3(CCCOC3)Oc3ccc(-c4cccc(Cl)c4)cc32)N=C1N (stereo not drawn) [Compound 110]
Second: CN1OC2(CC3(CCCOC3)Oc3ccc(-c4cccc(F)c4)cc32)N=C1N (stereo not drawn) [Compound 119]
The IC50 of the first is lower: 0.1 to 0.5 µM for the first, 1 to 5 µM for the second.

Compared with `CN1OC2(N=C1N)c1cc(-c3cccc(C#N)c3)ccc1OC1(CCCOC1)C2(F)F` (stereo not drawn) [Compound 112], `CN1OC2(CC3(CCCOC3)Oc3ccc(-c4cccc(C#N)c4)cc32)N=C1N` (stereo not drawn) [Compound 117] is higher in IC50: 0.5 to 1 µM for the first, 1 to 5 µM for the second. The first is the more potent here.

`CN1O[C@@]2(C[C@]3(CCOC3)Oc3ccc(-c4cccc(C#N)c4)cc32)N=C1N` [Compound 113b] and `CN1OC2(CC3(CCCCOC3)Oc3ccc(-c4cccc(C#N)c4)cc32)N=C1N` (stereo not drawn) [Compound 114] fall in the same range of IC50: 0.5 to 1 µM for the first, 0.5 to 1 µM for the second.

First: CN1OC2(CC3(CCOCC3)Oc3ccc(-c4cccc(C#N)c4)cc32)N=C1N (stereo not drawn) [Compound 115]
Second: CN1OC2(CC3(CCCOCC3)Oc3ccc(-c4cccc(C#N)c4)cc32)N=C1N (stereo not drawn) [Compound 116]
The IC50 of the first is lower: 0.5 to 1 µM for the first, 1 to 5 µM for the second. The first is the more potent here.

Compared with `CN1OC2(CC3(CCCCC3)Oc3ccc(-c4cccc(C#N)c4)cc32)NC1=N` (stereo not drawn) [Compound 118, 3-(3″-Imino-2″-methylspiro[spiro(chroman-2,1″-cyclohexane)-4,5′-[1,2,4]oxadiazolidine]-6-yl)benzonitrile], `CC1CCC2(C1)CC1(N=C(N)N(C)O1)c1cc(-c3cccc(C#N)c3)ccc1O2` (stereo not drawn) [Compound 125] is higher in IC50: 1 to 5 µM for the first, 5 to 10 µM for the second.

`CCC1CCC2(C1)CC1(N=C(N)N(C)O1)c1cc(-c3cccc(C#N)c3)ccc1O2` (stereo not drawn) [Compound 120] and `CC(C)C1CCC2(C1)CC1(N=C(N)N(C)O1)c1cc(-c3cccc(C#N)c3)ccc1O2` (stereo not drawn) [Compound 121] fall in the same range of IC50: 1 to 5 µM for the first, 1 to 5 µM for the second.

First: CN1OC2(CC3(CCCOC3)Oc3ccc(C4CCCCC4)cc32)N=C1N (stereo not drawn) [Compound 122]
Second: CN1OC2(CC3(CCCOC3)Oc3ccc(Oc4ccccc4)cc32)N=C1N (stereo not drawn) [Compound 130]
The IC50 of the first is lower: 1 to 5 µM for the first, 10 to 50 µM for the second. The first is the more potent here.

`CN1OC2(CC3(COC(C)(C)OC3)Oc3ccc(-c4cccc(C#N)c4)cc32)N=C1N` (stereo not drawn) [Compound 123, 3-(3″-imino-2″-methylspiro[spiro(chroman-2,1′-(4,4-dimethyl-3,5-dioxane))-4,5″-[1,2,4]oxadiazolidine]-6-yl)benzonitrile] and `CN1O[C@@]2(C[C@@]3(CCC(C(C)(C)C)C3)Oc3ccc(-c4cccc(C#N)c4)cc32)N=C1N` (stereo partly drawn) [Compound 127a] fall in the same range of IC50: 5 to 10 µM for the first, 5 to 10 µM for the second.

`CCOc1cccc(-c2ccc3c(c2)C2(CC4(CCCOC4)O3)N=C(N)N(C)O2)c1` (stereo not drawn) [Compound 124] and `CCCOc1cccc(-c2ccc3c(c2)C2(CC4(CCCOC4)O3)N=C(N)N(C)O2)c1` (stereo not drawn) [Compound 126] fall in the same range of IC50: 5 to 10 µM for the first, 5 to 10 µM for the second.

First: CN1O[C@@]2(C[C@]3(CCC(C(C)(C)C)C3)Oc3ccc(-c4cccc(C#N)c4)cc32)N=C1N (stereo partly drawn) [Compound 127b]
Second: CN1O[C@@]2(C[C@@H]([C@@H]3CCOC(C)(C)C3)Oc3ccc(-c4cccc(C#N)c4)cc32)N=C1N [Compound 285]
The IC50 of the first is higher: 5 to 10 µM for the first, 0.1 to 0.5 µM for the second.

`COCCCOc1cccc(-c2ccc3c(c2)C2(CC4(CCCOC4)O3)N=C(N)N(C)O2)c1` (stereo not drawn) [Compound 128] and `COCCOc1cccc(-c2ccc3c(c2)C2(CC4(CCCOC4)O3)N=C(N)N(C)O2)c1` (stereo not drawn) [Compound 129] fall in the same range of IC50: 10 to 50 µM for the first, 10 to 50 µM for the second.

`CN1C(=O)[C@@]2(C[C@@]3(CCCOC3)Oc3ccc(-c4cc(Cl)cc(Cl)c4)cc32)N=C1N` [Compound 281] and `CN1C(=O)[C@@]2(C[C@@]3(CCCOC3)Oc3ccc(-c4cccc(Cl)c4)cc32)N=C1N` [Compound 289] fall in the same range of IC50: 0.1 to 0.5 µM for the first, 0.1 to 0.5 µM for the second.

First: CN1C(=O)C2(CC(C3CCOC(C)(C)C3)Oc3ccc(-c4cc(C#N)ccc4C(F)(F)F)cc32)N=C1N (stereo not drawn) [Compound 284]
Second: CN1OC2(CC(C3CCOC(C)(C)C3)Oc3ccc(-c4cc(C#N)ccc4C(F)(F)F)cc32)N=C1N (stereo not drawn) [Compound 354]
The IC50 of the first is lower: 0.1 to 0.5 µM for the first, 0.5 to 1 µM for the second. The first is the more potent here.

`CN1C(=O)C2(CC3(CCCOC3)Oc3ccc(-c4cccc(C#N)c4F)cc32)N=C1N` (stereo not drawn) [Compound 291] and `CN1C(=O)C2(CC3(CCCOC3)Oc3ccc(-c4cc(F)ccc4F)cc32)N=C1N` (stereo not drawn) [Compound 332] fall in the same range of IC50: 0.1 to 0.5 µM for the first, 0.1 to 0.5 µM for the second.

`Cc1ccc(C#N)cc1-c1ccc2c(c1)C1(CC(C3CCOC(C)(C)C3)O2)N=C(N)N(C)O1` (stereo not drawn) [Compound 292] and `CN1OC2(C[C@H]([C@H]3CCOC(C)(C)C3)Oc3ccc(-c4cccc(C#N)c4F)cc32)N=C1N` (stereo partly drawn) [Compound 312] fall in the same range of IC50: 0.1 to 0.5 µM for the first, 0.1 to 0.5 µM for the second.

`CSc1cccc(-c2ccc3c(c2)[C@]2(C[C@]4(CCCOC4)O3)N=C(N)N(C)C2=O)c1` [Compound 296] and `Cc1cccc(-c2ccc3c(c2)C2(CC4(CCCOC4)O3)N=C(N)N(C)C2=O)c1` (stereo not drawn) [Compound 301] fall in the same range of IC50: 0.1 to 0.5 µM for the first, 0.1 to 0.5 µM for the second.

`CN1C(=O)C2(CC(C3CCOC(C)(C)C3)Oc3ccc(-c4cc(F)ccc4F)cc32)N=C1N` (stereo not drawn) [Compound 300] and `CN1OC2(C[C@H]([C@H]3CCOC(C)(C)C3)Oc3ccc(-c4cc(F)ccc4F)cc32)N=C1N` (stereo partly drawn) [Compound 341] fall in the same range of IC50: 0.1 to 0.5 µM for the first, 0.1 to 0.5 µM for the second.

Compared with `CN1C(=O)[C@@]2(C[C@@]3(CCCOC3)Oc3ccc(-c4cc(C#N)cc(C(F)(F)F)c4)cc32)N=C1N` [Compound 304], `CN1C(=O)[C@@]2(C[C@@]3(CCCOC3)Oc3ccc(-c4cc(F)cc(C#N)c4)cc32)N=C1N` [Compound 356] is higher in IC50: 0.1 to 0.5 µM for the first, 0.5 to 1 µM for the second.

`COc1ccc(OC)c(-c2ccc3c(c2)[C@]2(C[C@]4(CCCOC4)O3)N=C(N)N(C)C2=O)c1` [Compound 307] and `COc1ccc(OC)c(-c2ccc3c(c2)[C@]2(C[C@@]4(CCCOC4)O3)N=C(N)N(C)C2=O)c1` [Compound 321] fall in the same range of IC50: 0.1 to 0.5 µM for the first, 0.1 to 0.5 µM for the second.

`CN1C(=O)[C@@]2(C[C@@]3(CCCOC3)Oc3ccc(-c4cc(C#N)cc(C#N)c4)cc32)N=C1N` [Compound 309] and `Cc1cc(C)cc(-c2ccc3c(c2)[C@]2(C[C@@]4(CCCOC4)O3)N=C(N)N(C)C2=O)c1` [Compound 340] fall in the same range of IC50: 0.1 to 0.5 µM for the first, 0.1 to 0.5 µM for the second.

First: CN1C(=O)[C@@]2(C[C@@]3(CCCOC3)Oc3ccc(-c4ccc(F)c(Cl)c4)cc32)N=C1N [Compound 310]
Second: CN1C(=O)C2(CC3(CCCOC3)Oc3ccc(-c4ccc(F)c(F)c4)cc32)N=C1N (stereo not drawn) [Compound 351]
The IC50 of the first is lower: 0.1 to 0.5 µM for the first, 0.5 to 1 µM for the second.

`CN1C(=O)C2(C[C@]3(CCCOC3)Oc3ccc(-c4cccc(Br)c4)cc32)N=C1N` (stereo partly drawn) [Compound 318] and `CN1C(=O)[C@@]2(C[C@@]3(CCCOC3)Oc3ccc(-c4cccc(Br)c4)cc32)N=C1N` [Compound 336] fall in the same range of IC50: 0.1 to 0.5 µM for the first, 0.1 to 0.5 µM for the second.

`CC1CC(C2CC3(N=C(N)N(C)O3)c3cc(-c4cccc(C#N)c4)ccc3O2)CC(C)O1` (stereo not drawn) [Compound 319] and `CN1OC2(CC(C3CC(C)(C)OC(C)(C)C3)Oc3ccc(-c4cccc(C#N)c4)cc32)N=C1N` (stereo not drawn) [Compound 327] fall in the same range of IC50: 0.1 to 0.5 µM for the first, 0.1 to 0.5 µM for the second.

First: CN1C(=O)[C@@]2(C[C@@]3(CCCOC3)Oc3ccc(-c4cccc(C(F)(F)F)c4)cc32)N=C1N [Compound 325]
Second: CN1C(=O)[C@@]2(C[C@@]3(CCCOC3)Oc3ccc(-c4cccc(OC(F)(F)F)c4)cc32)N=C1N [Compound 357]
The IC50 of the first is lower: 0.1 to 0.5 µM for the first, 0.5 to 1 µM for the second. The first is the more potent here.

Compared with `COc1cc(F)cc(-c2ccc3c(c2)[C@]2(C[C@@]4(CCCOC4)O3)N=C(N)N(C)C2=O)c1` [Compound 328], `CN1C(=O)C2(CC3(CCCOC3)Oc3ccc(-c4cccc(F)c4)cc32)N=C1N` (stereo not drawn) [Compound 347] is higher in IC50: 0.1 to 0.5 µM for the first, 0.5 to 1 µM for the second. The first is the more potent here.

Compared with `CN1OC2(CC3(CCCN(c4ncccn4)C3)Oc3ccc(-c4cccc(C#N)c4)cc32)N=C1N` (stereo not drawn) [Compound 329], `CN1OC2(CC(C3CCOCC3)Oc3ccc(-c4cc(Cl)cc(C#N)c4)cc32)N=C1N` (stereo not drawn) [Compound 350] is higher in IC50: 0.1 to 0.5 µM for the first, 0.5 to 1 µM for the second.

`CN1OC2(CC(C3CCCOC3)Oc3ccc(-c4ccc(F)c(C#N)c4F)cc32)N=C1N` (stereo not drawn) [Compound 334] and `CN1OC2(CC(C3CCOC(C)(C)C3)Oc3ccc(-c4cc(F)cc(F)c4F)cc32)N=C1N` (stereo not drawn) [Compound 344] fall in the same range of IC50: 0.1 to 0.5 µM for the first, 0.1 to 0.5 µM for the second.

`CN1OC2(CC(C3CCOC(C)(C)C3)Oc3ccc(-c4cc(F)cc(F)c4)cc32)N=C1N` (stereo not drawn) [Compound 339] and `CN1OC2(CC(C3CCOC(C)(C)C3)Oc3ccc(-c4cccc(F)c4)cc32)N=C1N` (stereo not drawn) [Compound 343] fall in the same range of IC50: 0.1 to 0.5 µM for the first, 0.1 to 0.5 µM for the second.

Compared with `CCOc1ccc(Cl)cc1-c1ccc2c(c1)[C@]1(C[C@]3(CCCOC3)O2)N=C(N)N(C)C1=O` [Compound 342], `CN1C(=O)C2(CC3(CCCOC3)Oc3ccc(-c4cc(F)cc(F)c4F)cc32)N=C1N` (stereo not drawn) [Compound 346] is higher in IC50: 0.1 to 0.5 µM for the first, 0.5 to 1 µM for the second.
